Experimental data published in BindingDB's records for patent US11753403 (Pic Therapeutics, 2023).

molecular target: T1, Eukaryotic translation initiation factor 4E [28-217] (Homo sapiens, UniProt P06730); assay: Human eIF4E/4G2 Binding Assay
T1 construct: 28-217
Method: Test compounds (3.43 mM stock in DMSO) were diluted 2-fold in series in DMSO (10 concentration points). Compound solutions (1.2 μl/well) were added into black 384-well polypropylene microplates (Matrix, Thermal Scientific). Twenty-two microliters per well of Assay Buffer (50 mM NaPi, pH 6.5, 50 mM KCl, 1 mM DTT and 0.5 mg/ml gamma globulin) and eight microliters per well of 82.5 nM purified eIF4E in Assay Buffer were added. The samples were incubated at room temperature (20-23° C.) for 4 hours. Biotin labeled 4G2 peptide (Ac-Lys-Gln-Tyr-Asp-Arg-Glu-Phe-Leu-Leu-Asp-Phe-Gln-Phe-Met-Pro-Lys(Aha-Bio)-NH2, 1.75 μM stock in DMSO) was diluted to 0.14 μM in Assay Buffer (without DTT) and 5 μl/well was added. The samples were incubated at room temperature for 20 min. Five microliters per well of 6.4 nM Eu-streptavidin (Eu-SA, Perkin Elmer) and 80 nM Allophycocyanin (APC)-anti His antibody (Columbia Biosciences) in Assay Buffer (without DTT) were then added and the samples were incubated at room temperature for 20 min.

T1 sequence (P06730 28-217): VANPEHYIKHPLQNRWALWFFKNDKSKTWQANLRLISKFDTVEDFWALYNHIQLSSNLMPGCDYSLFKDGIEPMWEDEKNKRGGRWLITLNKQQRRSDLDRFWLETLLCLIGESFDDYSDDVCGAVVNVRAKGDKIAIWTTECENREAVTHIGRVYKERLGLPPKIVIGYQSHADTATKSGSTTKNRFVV

SMILES	IC50 [µM]
CC(C)Cc1sc(Nc2cccc(C(=O)O)c2)nc1-c1ccc(Cl)c(Cl)c1 [US11753403, Compound I-142]	< 1
CC(C)Cc1sc(N(CCS(N)(=O)=O)Cc2ccccc2)nc1-c1ccc(Cl)c(Cl)c1 [US11753403, Compound I-98]	> 10
CC(C)Cc1sc(N2CCN(C(=O)c3cccc(F)c3)C(C(=O)O)C2)nc1-c1ccc(Cl)c(Cl)c1 (stereo not given) [US11753403, Compound I-247]	< 1
O=C(O)CCN(Cc1ccccc1)c1nc(-c2ccc(Cl)c(Cl)c2)c(CN2CCCCC2)s1 [US11753403, Compound I-90]	> 10
CC(C)Cc1sc(-c2ccc(NC(=O)c3ccccc3)c(C(=O)O)c2)nc1-c1ccc(Cl)c(Cl)c1 [US11753403, Compound I-237]	< 1

Second part, the compound after the results:

IC50 [µM]	SMILES
> 10	NC(=O)c1sc(N(CCC(=O)O)Cc2ccccc2)nc1-c1ccc(Cl)c(Cl)c1 [US11753403, Compound I-124]
> 10	CC(C)Cc1sc(N(CCC(=O)NCCO)Cc2ccccc2)nc1-c1ccc(Cl)c(Cl)c1 [US11753403, Compound I-194]
> 10	CC(C)Cc1sc(NCC(Cc2cccc(C(=O)NCCN)c2)C(=O)O)nc1-c1ccc(Cl)c(Cl)c1 (stereo not given) [US11753403, Compound I-204]
> 10	CC(C)Cc1sc(N(CCC(=O)NS(=O)(=O)CCCN)Cc2ccccc2)nc1-c1ccc(Cl)c(Cl)c1 [US11753403, Compound I-186]
< 1	CC(C)Cc1sc(N(CCC(=O)O)Cc2ccccc2)nc1-c1ccc(-c2ccc(F)cc2)c(Cl)c1 [US11753403, Compound I-104]
